Experimental data published in patent publication US7622269B2, “Methods of screening tyramine- and octopamine-expressing cells for compounds and compositions having potential insect control activity” (Tyratech, Inc., priority 2004, dated 2009).

System: octopamine synthesis mutant (iav) Drosophila melanogaster strain
Type: in vivo
Conditions: for toxicity in iav strain compared with wild type: in vivo; for % Mortality at LD50 of wild/type Drosophila melanogaster strain, iav: topical, 24 hour

Row | Compound | toxicity in iav strain compared with wild type | % Mortality at LD50 of wild/type Drosophila melanogaster strain, iav
1 | Cc1ccc(C(C)C)cc1 [p-cymene, methyl(1-methylethyl)benzene] | does not affect the toxicity | 40.0%
2 | CC(C)=CCCC(C)=CCO [geraniol, 3,7-dimethyl-2,6-octadien-1-ol] | does not affect the toxicity | 60.0%
3 | CCC(=O)OCCc1ccccc1 [2-phenylethyl propionate] | remarkably increased | 80.0%
4 | COC(=O)c1ccccc1O [methyl salicylate, 2-hydroxybenzoic acid methyl ester] | does not affect the toxicity | 46.6%
5 | OCC=Cc1ccccc1 [cinnamic alcohol, 3-phenyl-2-propen-1-ol] | remarkably increased | 80.0%
6 | C=CCc1ccc(O)c(OC)c1 [eugenol, 2-methoxy-4-(2-propenyl)phenol] | remarkably increased | 80.0%
